Assay results published in US6777413B2, “2-[1H]-quinolone and 2-[1H]-quinoxalone inhibitors of factor Xa” (Millennium Pharmaceuticals, Inc., priority 2000, dated 2004).

Assays:
prothrombinase complex = prothrombinase complex (Homo sapiens, UniProt P00742); experiment: prothrombinase inhibition assay (IIASE); type: biochemical; details: plasma free system, Chromozym TH
Experimental: The prothrombinase inhibition assay is performed in a plasma free system with modifications to the method described by Sinha, U. et al., Thromb. […] Specifically, the activity of the prothrombinase complex is determined by measuring the time course of thrombin generation using the p-nitroanilide substrate Chromozym TH. […] Aliquots from the complex-inhibitor mixture are added to prothrombin (1 nM) and Chromozym TH (0.1 mM). […] Eight different concentrations of inhibitor are assayed in duplicate. A standard curve of thrombin generation by an equivalent amount of untreated complex is used for determination of percent inhibition.

TRYPSIN = target: T1, TRYPSIN (Bos taurus, UniProt P00760); experiment: trypsin protease inhibition; type: biochemical
T1 construct: gene PRSS1
T1 sequence (P00760 24-246): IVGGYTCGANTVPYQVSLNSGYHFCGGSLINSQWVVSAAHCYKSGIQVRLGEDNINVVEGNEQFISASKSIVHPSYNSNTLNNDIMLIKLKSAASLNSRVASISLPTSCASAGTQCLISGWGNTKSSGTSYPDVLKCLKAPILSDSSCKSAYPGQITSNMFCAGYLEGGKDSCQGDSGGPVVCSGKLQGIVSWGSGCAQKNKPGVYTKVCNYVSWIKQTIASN

factor Xa = factor Xa (Homo sapiens, UniProt P00742); experiment: factor Xa amidolytic assay (XA)
factor Xa, sequence (P00742 235-488 limits assumed): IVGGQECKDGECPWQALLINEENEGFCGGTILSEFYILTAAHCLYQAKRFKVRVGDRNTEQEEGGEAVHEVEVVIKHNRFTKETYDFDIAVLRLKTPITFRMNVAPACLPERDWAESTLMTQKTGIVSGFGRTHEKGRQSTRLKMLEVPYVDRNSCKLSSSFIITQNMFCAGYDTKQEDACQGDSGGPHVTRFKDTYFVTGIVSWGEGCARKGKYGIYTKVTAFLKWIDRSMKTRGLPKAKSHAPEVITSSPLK
factor Xa, sequence (P00742 41-179 limits assumed): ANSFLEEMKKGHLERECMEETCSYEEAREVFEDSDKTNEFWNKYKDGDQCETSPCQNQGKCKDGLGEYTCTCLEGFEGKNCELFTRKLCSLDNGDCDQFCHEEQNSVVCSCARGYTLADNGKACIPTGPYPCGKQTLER
Experimental: (§1) In the assays for thrombin, prothrombinase and factor Xa, a synthetic chromogenic substrate is added to a solution containing test compound and the enzyme of interest and the residual catalytic activity of that enzyme is determined spectrophotometrically. The IC50 of a compound is determined from the substrate turnover. […] The factor Xa and thrombin assays are performed at room temperature, in 0.02 M Tris·HCl buffer, pH 7.5, containing 0.15 M NaCl.

thrombin = thrombin (Homo sapiens, UniProt P00734); experiment: thrombin amidolytic assay (IIA)
Experimental: as §1

prothrombinase complex, sequence (P00742 235-488 limits assumed): as the sequence (P00742 235-488 limits assumed) above
prothrombinase complex, sequence (P00742 41-179 limits assumed): as the sequence (P00742 41-179 limits assumed) above
prothrombinase complex, sequence (P12259 29-737 partner limits assumed): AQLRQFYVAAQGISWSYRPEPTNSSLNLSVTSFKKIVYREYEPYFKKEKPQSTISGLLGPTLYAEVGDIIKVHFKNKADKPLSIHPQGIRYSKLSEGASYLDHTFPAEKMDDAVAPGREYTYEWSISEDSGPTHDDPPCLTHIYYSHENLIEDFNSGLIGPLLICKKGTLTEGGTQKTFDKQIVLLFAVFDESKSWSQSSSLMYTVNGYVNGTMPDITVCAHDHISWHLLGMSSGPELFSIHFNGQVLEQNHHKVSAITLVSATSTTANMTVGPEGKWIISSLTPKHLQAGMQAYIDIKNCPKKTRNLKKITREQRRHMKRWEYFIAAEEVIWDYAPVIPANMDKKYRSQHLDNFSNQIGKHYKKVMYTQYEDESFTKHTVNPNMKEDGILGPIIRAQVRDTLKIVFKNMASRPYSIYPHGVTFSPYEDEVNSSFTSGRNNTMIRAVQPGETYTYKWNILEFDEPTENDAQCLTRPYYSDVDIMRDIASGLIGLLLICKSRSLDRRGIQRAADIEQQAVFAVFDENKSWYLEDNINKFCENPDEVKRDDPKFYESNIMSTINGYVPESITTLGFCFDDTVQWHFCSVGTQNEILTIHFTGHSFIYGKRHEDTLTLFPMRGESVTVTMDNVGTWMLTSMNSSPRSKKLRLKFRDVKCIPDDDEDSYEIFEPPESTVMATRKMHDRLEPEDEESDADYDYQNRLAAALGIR
prothrombinase complex, sequence (P12259 1574-2224 partner limits assumed): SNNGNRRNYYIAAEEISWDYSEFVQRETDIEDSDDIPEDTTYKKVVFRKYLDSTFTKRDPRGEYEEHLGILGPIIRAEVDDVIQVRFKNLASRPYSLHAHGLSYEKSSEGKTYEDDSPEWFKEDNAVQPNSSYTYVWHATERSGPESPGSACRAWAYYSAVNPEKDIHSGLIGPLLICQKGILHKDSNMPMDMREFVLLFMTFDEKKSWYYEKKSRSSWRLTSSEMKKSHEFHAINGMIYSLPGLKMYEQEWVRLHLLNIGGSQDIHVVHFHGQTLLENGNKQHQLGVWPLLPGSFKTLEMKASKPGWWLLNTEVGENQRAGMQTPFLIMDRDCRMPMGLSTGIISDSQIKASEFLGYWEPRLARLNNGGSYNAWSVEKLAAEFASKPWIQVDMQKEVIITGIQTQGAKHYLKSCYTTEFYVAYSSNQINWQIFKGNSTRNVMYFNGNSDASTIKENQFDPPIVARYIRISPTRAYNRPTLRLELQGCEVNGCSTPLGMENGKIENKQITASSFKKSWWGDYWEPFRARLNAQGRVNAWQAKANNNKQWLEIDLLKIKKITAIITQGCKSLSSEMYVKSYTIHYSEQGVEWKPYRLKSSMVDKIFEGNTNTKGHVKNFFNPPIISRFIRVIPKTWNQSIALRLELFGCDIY

| Structure (SMILES) | IC50 (prothrombinase complex) [µM] | IC50 (TRYPSIN) [µM] | IC50 (factor Xa) [µM] | IC50 (thrombin) [µM] |
| --- | --- | --- | --- | --- |
| CC(=N)N1CCC(Oc2ccc3c(ccc(=O)n3Cc3ccccc3-c3cccc(C(=N)N)c3)c2)CC1 [Example 9] | 0.697 | 0.847 | 2.55 |  |
| N=C(N)c1ccc(-c2ccccc2Cn2c(=O)ccc3cc(OC4CCNCC4)ccc32)cc1 [Example 8] | 1.92 | 56.6 | 501 | 1.7 |
| N=C(N)c1cccc(-c2ccc(Cn3c(=O)ccc4cc(OC5CCNCC5)ccc43)cc2)c1 [Example 6] | 38.2 | 3.63 | 4.94 | 58.8 |
| CC(=N)N1CCC(Oc2ccc3c(ccc(=O)n3Cc3ccc(-c4cccc(C(=N)N)c4)cc3)c2)CC1 [Example 7] | 0.362 | 4.29 | 0.0823 | 45 |
| CC(=N)N1CCC(Oc2ccc3c(ccc(=O)n3Cc3cccc(-c4cccc(C(=N)N)c4)c3)c2)CC1 [Example 4] | 0.157 | 0.0477 | 0.0118 | 4.56 |
| N=C(N)c1ccc2ccc(Cn3c(=O)ccc4cc(OC5CCNCC5)ccc43)cc2c1 [Example 1] | 9.11 | 0.0772 | 0.151 | 122 |
| N=C(N)c1cccc(-c2cccc(Cn3c(=O)ccc4cc(OC5CCNCC5)ccc43)c2)c1 [Example 5] | 46.3 | 0.263 | 1.57 | 6.59 |

The remaining lines, values ahead:

| IC50 (prothrombinase complex) [µM] | IC50 (TRYPSIN) [µM] | IC50 (factor Xa) [µM] | IC50 (thrombin) [µM] | Structure (SMILES) |
| --- | --- | --- | --- | --- |
| 2.18 | 0.289 | 41.9 | 2.48 | N=C(N)c1cccc(-c2ccccc2Cn2c(=O)ccc3cc(OC4CCNCC4)ccc32)c1 [Example 11] |
| 15.5 | 4.41 | 70 | 9.13 | N=C(N)c1ccc(-c2ccc(Cn3c(=O)ccc4cc(OC5CCNCC5)ccc43)cc2)cc1 [Example 12] |
| 1.21 | 0.832 | 0.514 | 11 | CCn1c(Cn2c(=O)ccc3cc(OC4CCN(C(C)=N)CC4)ccc32)cc2ccc(C(=N)NN)cc21 [Example 17] |
| 2.58 | 0.315 | 0.209 | 399 | CN1CCC(Oc2ccc3c(ccc(=O)n3Cc3ccc4ccc(C(=N)N)cc4c3)c2)CC1 [Example 16] |
| 1.2 | 52.5 | 137 | 0.995 | CC(=N)N1CCC(Oc2ccc3c(ccc(=O)n3Cc3ccccc3-c3ccc(C(=N)N)cc3)c2)CC1 [Example 10] |
| 8.63 | 1.91 | 50 | 3 | CC(=N)N1CCC(Oc2ccc3c(ccc(=O)n3Cc3ccc(-c4ccc(C(=N)N)cc4)cc3)c2)CC1 [Example 13] |
| 33.5 | 3.37 | 18.8 | 30.4 | CC(=N)N1CCC(Oc2ccc3c(ccc(=O)n3Cc3cccc(-c4ccc(C(=N)N)cc4)c3)c2)CC1 [Example 15] |
| 0.0143 | 0.0104 | 0.00474 | 0.0693 | CCn1c(Cn2c(=O)ccc3cc(OC4CCN(C(C)=N)CC4)ccc32)cc2ccc(C(=N)N)cc21 [Example 14] |
| 3.25 | 0.656 | 0.58 | 75 | N=C(N)c1ccc2ccc(Cn3c(=O)ccc4cc(OC5CCN(c6ncccn6)CC5)ccc43)cc2c1 [Example 18] |
